Laboratory results reported in publication PMC11238198, “Rejuvenation of Meropenem by Conjugation with Tilapia Piscidin-4 Peptide Targeting NDM-1 Escherichia coli” (ACS Omega, 2024).
No end group written: not given here.

Experiments:
CCD966-SK cells = format: cell-based, human; conditions: 16 µM
Method: RAW 264.7 murine macrophage cells, CCD966-SK human fibroblast cells, and HaCaT human keratinocytes were procured from BCRC, Taiwan. RAW264.7 and HaCaT cells were cultivated in DMEM supplemented with 10% FBS, streptomycin (100 μg/mL), and penicillin (100 U/mL) at 37 °C and 5% CO2. CCD966-SK were cultivated in MEM with 0.1 mM nonessential amino acids with 10% FBS, streptomycin (100 μg/mL), and penicillin (100 U/mL) at 37 °C and 5% CO2. In vitro cytotoxicity of the TP4-Meropenem conjugates was evaluated with an alamarBlue assay. Briefly, 5 × 10^4 RAW264.7 cells/well or 5 × 10^3 CCD966-SK or 1 × 10^4 HaCaT cells/well were seeded in 96-well plates for 24 h and then treated with different concentrations of peptide/conjugate. Controls included 0.1% Triton-X-treated cells and cells in a culture medium. After 24 h of treatment, the cells were washed and incubated with 90 μL of DMEM and 10 μL of alamarBlue reagent for 2 h. The absorbances at 570 and 600 nm were measured using a Spectra Max i3 (Molecular Devices, CA). Cell viability was calculated using the formula as described in the protocol. The LDH assay was carried out using the cytotoxicity detection kit PLUS according to a previously described protocol.[33]

NDM E. coli BAA 2452 [1] = test: microbe, parasite or virus in culture; format: cell-based, Escherichia coli; conditions: for MIC: NDM-1-positive MDR strain, Mueller Hinton broth, 37 °C, 16–20 h, three independent replicates, each in triplicate
Method: (§1) E. coli 8–8, A. baumannii 2982, and S. aureus 13–1 were procured from the Bioresource Collection and Research Center (BCRC), Taiwan. NDM-1-positive E. coli BAA 2452 was procured from ATCC. All strains were cultured in Mueller Hinton broth (MHB). The concentration of bacteria was identified by the absorbance at OD600. The colony forming units (CFU) corresponding to different OD600 values were identified by plating on the Mueller Hinton agar (MHA) plate.
(§2) Antibacterial analysis was performed according to a standard protocol.[32] Overnight cultures of test bacteria were prepared and freshly subcultured. Briefly, 50 μL of 1 × 10^6 CFU/mL bacterial cells was treated with 50 μL of peptide or conjugate at different concentrations in a 96-well plate. The plates were incubated at 37 °C for 16–20 h. The lowest concentration of peptide/conjugate showing no growth was considered the minimum inhibitory concentration (MIC). To identify the MIC (MBC), 5 μL of incubated suspensions from growth-free wells was plated onto MHA and incubated overnight at 37 °C. The lowest concentration of peptide/conjugate showing no growth on the MHA plate was considered to be the MBC. The experiments were performed in three independent replicates, each in triplicate.

NDM E. coli BAA 2452 [2] = test: microbe, parasite or virus in culture; format: cell-based; conditions: Escherichia coli, BAA2452; 5 μL from growth-free wells plated onto MHA, overnight at 37 °C; three independent replicates, each in triplicate
Method: as §1, §2

S. aureus 13–1 = test: microbe, parasite or virus in culture; format: cell-based; conditions: Mueller Hinton broth, 50 μL of 1 × 10^6 CFU/mL + 50 μL sample, 37 °C, 16–20 h, three independent replicates, each in triplicate
Method: as §1, §2

A. baumannii 2982 = test: microbe, parasite or virus in culture; format: cell-based, Acinetobacter baumannii; conditions: Mueller Hinton broth, 50 μL of 1 × 10^6 CFU/mL + 50 μL sample, 37 °C, 16–20 h, three independent replicates, each in triplicate
Method: as §1, §2

RBCs = format: cell-based, Human
Method: Human RBCs were used to examine the hemolytic profiles of the peptides and conjugates. The RBCs were washed three times with PBS and centrifuged at 1000g. Then, 50 μL of a 2% RBC suspension was added to 50 μL of peptide/conjugate solution at different concentrations. The mixture was incubated at 37 °C for 1 h. The incubated mixture was centrifuged, and hemolysis was assessed by measuring the absorbance of the supernatant at 540 nm.

E. coli 8–8 = format: cell-based, Escherichia coli; conditions: Mueller Hinton broth, 50 μL of 1 × 10^6 CFU/mL + 50 μL sample, 37 °C, 16–20 h; three independent replicates, each in triplicate
Method: as §1, §2

FIHHIIGGLFSAGKAIHRLIRRRRR [TP4, Tilapia piscidin-4]
cell viability, CCD966-SK (CCD966-SK cells): 23.9 ± 1.2%

C[C@@H](O)[C@H]1C(=O)N2C(C(=O)O)=C(S[C@@H]3CN[C@H](C(=O)N(C)C)C3)[C@H](C)[C@H]12 [Meropenem]
MIC (NDM E. coli BAA 2452 [1]; Escherichia coli, BAA2452): > 64 µM
MIC (NDM E. coli BAA 2452 [1]): >64 µM
MBC (NDM E. coli BAA 2452 [2]): > 64 µM
MIC (S. aureus 13–1; Staphylococcus aureus, read-out: minimum inhibitory concentration (MIC) S. aureus 13–1): 0.25 µM
MIC (A. baumannii 2982; Acinetobacter baumannii, 2982, read-out: minimum inhibitory concentration (MIC) A. baumannii 2982): > 32 µM

FIHHIIGGLFSAGKAIHRLIRRRRR [L-TP4, Tilapia piscidin-4] [listing 1 of 2 here]
hemolysis (% of the total cells) at 4 μM (RBCs; 4 µM): 44.4 ± 4.3%
hemolysis (% of the total cells) at 8 μM (RBCs; 8 µM): 84.1 ± 6.2%

D-Tilapia piscidin 4 [D-TP4]
minimum inhibitory concentration (MIC) S. aureus 13–1 (S. aureus 13–1): 2 to 4 µM
minimum inhibitory concentration (MIC) A. baumannii 2982 (A. baumannii 2982): 2 to 4 µM
minimum inhibitory concentration (MIC) E. coli 8–8 (E. coli 8–8): 2 to 4 µM

FIHHIIGGLFSAGKAIHRLIRRRRR [L-TP4, Tilapia piscidin-4] [listing 2 of 2 here]
MIC NDM E. coli BAA 2452 (NDM E. coli BAA 2452 [1]; BAA 2452): 4 to 8 µM
